Experimental data: the supplement of paper PMC10307832

Legend:
Assay in all cases: relative viability (nuclei count vs DMSO), 5 days (fraction); higher = more cells survive
KIN001-266 + Linsitinib = compound: CCN1CCC(CC1)N2C=C(N=N2)CNC3=CC4=C(C(=CN=C4C(=C3)Cl)C#N)NC5=CC(=C(C=C5)F)Cl [KIN001-266] + C[C@]1(O)C[C@@H](c2nc(-c3ccc4ccc(-c5ccccc5)nc4c3)c3c(N)nccn32)C1 [Linsitinib] (partner 1 µM)
Summary of the method: (§1)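 Lung cancer cell lines were seeded in 1536-well plates and dosed by pin tool the next day, with either a single drug or a fixed anchor-drug dose combined with five library-drug doses (not always all listed) spaced in √10 steps. Five days later, one step fixed the cells and stained their nuclei (final 0.05% Triton X-100, 1% formaldehyde, 1 ug/ml Hoechst), and nuclei were counted on 4× images. Relative viability is the nuclei count in treated wells divided by the count in vehicle wells, and each value is the median of duplicate plates.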

KIN001-266 + OSI-027 = compound: CCN1CCC(CC1)N2C=C(N=N2)CNC3=CC4=C(C(=CN=C4C(=C3)Cl)C#N)NC5=CC(=C(C=C5)F)Cl [KIN001-266] + COc1cccc2cc(-c3nc([C@H]4CC[C@H](C(=O)O)CC4)n4ncnc(N)c34)[nH]c12 [OSI-027] (partner 0.5 µM)
Summary of the method: as §1

KIN001-266 + Lapatinib = compound: CCN1CCC(CC1)N2C=C(N=N2)CNC3=CC4=C(C(=CN=C4C(=C3)Cl)C#N)NC5=CC(=C(C=C5)F)Cl [KIN001-266] + CS(=O)(=O)CCNCc1ccc(-c2ccc3ncnc(Nc4ccc(OCc5cccc(F)c5)c(Cl)c4)c3c2)o1 [Lapatinib] (partner 2 µM)
Summary of the method: as §1

KIN001-266 + Alpelisib = compound: CCN1CCC(CC1)N2C=C(N=N2)CNC3=CC4=C(C(=CN=C4C(=C3)Cl)C#N)NC5=CC(=C(C=C5)F)Cl [KIN001-266] + Cc1nc(NC(=O)N2CCC[C@H]2C(N)=O)sc1-c1ccnc(C(C)(C)C(F)(F)F)c1 [Alpelisib] (partner 2 µM)
Summary of the method: as §1

Cell Line | relative viability (KIN001-266 + Linsitinib; first compound 0.08 µM) | relative viability (KIN001-266 + Linsitinib; first compound 0.253 µM) | relative viability (KIN001-266 + Linsitinib; first compound 0.8 µM) | relative viability (KIN001-266 + Linsitinib; first compound 2.53 µM) | relative viability (KIN001-266 + Linsitinib; first compound 8 µM) | relative viability (KIN001-266 + OSI-027; first compound 0.08 µM) | relative viability (KIN001-266 + OSI-027; first compound 0.253 µM) | relative viability (KIN001-266 + OSI-027; first compound 0.8 µM) | relative viability (KIN001-266 + OSI-027; first compound 2.53 µM) | relative viability (KIN001-266 + OSI-027; first compound 8 µM) | relative viability (KIN001-266 + Lapatinib; first compound 0.08 µM) | relative viability (KIN001-266 + Lapatinib; first compound 0.253 µM) | relative viability (KIN001-266 + Lapatinib; first compound 0.8 µM) | relative viability (KIN001-266 + Lapatinib; first compound 2.53 µM) | relative viability (KIN001-266 + Lapatinib; first compound 8 µM) | relative viability (KIN001-266 + Alpelisib; first compound 0.08 µM) | relative viability (KIN001-266 + Alpelisib; first compound 0.253 µM) | relative viability (KIN001-266 + Alpelisib; first compound 0.8 µM) | relative viability (KIN001-266 + Alpelisib; first compound 2.53 µM) | relative viability (KIN001-266 + Alpelisib; first compound 8 µM)
201T | 1.08 | 1.04 | 0.984 | 1.01 | 1.15 | 0.786 | 0.53 | 0.8 | 0.776 | 0.735 | 1.05 | 0.981 | 0.992 | 1.07 | 1.05 | 1.03 | 1 | 1.02 | 1.05 | 1.01
A549 | 0.604 | 0.55 | 0.562 | 0.668 | 0.592 |  |  |  |  |  | 1.03 | 0.991 | 1.05 | 0.924 | 0.84 | 1.01 | 0.782 | 0.898 | 0.758 | 0.701
A-427 | 1.12 | 1.2 | 1.09 | 1.06 | 1.13 | 0.492 | 0.478 | 0.499 | 0.475 | 0.48 | 1.07 | 1.08 | 1.04 | 0.921 | 1.01 | 1.12 | 1.05 | 1.04 | 1.02 | 0.998
ABC-1 | 1.1 | 0.788 | 0.945 | 0.76 | 0.713 | 0.649 | 0.436 | 0.622 | 0.392 | 0.375 | 1.18 | 1.08 | 1.12 | 1.14 | 1.1 | 1.23 | 1.08 | 1.09 | 0.812 | 0.976
BEN | 0.892 | 0.919 | 0.914 | 1.04 | 0.978 | 0.296 | 0.335 | 0.305 | 0.274 | 0.283 | 0.779 | 0.764 | 0.77 | 0.835 | 0.953 | 0.841 | 1.08 | 1.03 | 0.997 | 0.916
CAL-12T | 0.802 | 0.811 | 0.774 | 0.863 | 0.493 | 0.696 | 0.742 | 0.538 | 0.508 | 0.509 | 0.826 | 0.706 |  | 0.679 | 0.626 | 1.43 | 1.39 | 1.11 | 1.3 | 1.02
COR-L23 | 0.958 | 0.918 | 0.928 | 0.88 | 0.601 | 0.851 | 0.788 | 0.895 | 0.657 | 0.582 | 0.797 | 0.894 | 0.998 | 0.904 | 0.983 | 0.735 | 0.804 | 0.814 | 0.736 | 0.404
Calu-6 | 1.03 | 0.978 | 0.955 | 0.943 | 0.836 |  |  |  |  |  | 1.09 | 1.05 | 1.02 | 1 | 0.899 | 1.16 | 0.915 | 1.1 | 0.915 | 0.86
ChaGo-K-1 |  |  |  |  |  | 0.657 | 0.551 | 0.553 | 0.647 | 0.459 |  |  |  |  |  |  |  |  |  | 
EBC-1 | 1.04 | 0.896 | 0.839 | 1.01 | 0.726 |  |  |  |  |  | 0.219 | 0.218 | 0.209 | 0.199 | 0.201 | 0.929 | 0.879 | 0.822 | 0.843 | 0.629
IA-LM | 0.51 | 0.435 | 0.58 | 0.584 | 0.641 |  |  |  |  |  | 0.967 | 0.752 | 0.989 | 0.861 | 0.474 | 1.09 | 0.652 | 0.754 | 0.635 | 0.755
LCLC-103H | 1.02 | 1.04 | 1.16 | 1.09 | 0.96 | 0.49 | 0.469 | 0.452 | 0.484 | 0.469 |  |  |  |  |  | 0.906 | 0.975 | 0.951 | 0.972 | 0.808
NCI-H441 | 0.7 | 0.454 | 0.456 | 0.565 | 0.59 | 0.829 | 0.695 | 0.585 | 0.563 | 0.479 |  |  |  |  |  | 0.75 | 0.822 | 0.73 | 0.793 | 0.496
NCI-H522 |  |  |  |  |  | 0.879 | 0.74 | 0.677 | 0.659 | 0.659 |  |  |  |  |  |  |  |  |  | 
NCI-H1299 | 0.955 | 0.984 | 1 | 0.946 | 0.899 |  |  |  |  |  | 0.918 | 0.959 | 0.902 | 0.854 | 0.855 | 1.04 | 1.05 | 0.548 | 0.975 | 1.01
NCI-H1648 |  |  |  |  |  | 0.28 | 0.256 | 0.273 | 0.257 | 0.273 |  |  |  |  |  |  |  |  |  | 
NCI-H1650 |  |  |  |  |  | 0.872 | 0.786 | 0.507 | 0.397 | 0.337 | 0.881 | 0.873 | 0.826 | 0.641 | 0.42 |  |  |  |  | 
NCI-H1703 | 0.786 | 0.493 | 1.11 | 0.488 | 0.747 |  |  |  |  |  | 1.02 | 0.947 | 1.25 | 0.87 | 0.532 | 0.419 | 0.307 | 0.31 | 0.289 | 0.325
NCI-H2170 |  |  |  |  |  | 0.734 | 0.769 | 0.708 | 0.639 | 0.719 | 0.29 | 0.268 | 0.266 | 0.247 | 0.255 | 0.81 | 0.771 | 0.776 | 0.734 | 0.786
NCI-H2342 |  |  |  |  |  | 0.607 | 0.626 | 0.564 | 0.708 | 0.754 |  |  |  |  |  |  |  |  |  | 
SW 900 |  |  |  |  |  | 0.738 | 0.366 | 0.551 | 0.485 | 0.325 |  |  |  |  |  |  |  |  |  | 
